From US5972898A, “3',3-N-bis-substituted macrolide LHRH antagonists” (Abbott Laboratories, priority 1998, dated 1999) come the findings set out here.

In this assay the target is T1, LHRH rat pituitary receptor (Rattus norvegicus, UniProt P30969).
T1 construct: from tissue; host or cells: rat pituitary
T1 sequence (P30969 1-327): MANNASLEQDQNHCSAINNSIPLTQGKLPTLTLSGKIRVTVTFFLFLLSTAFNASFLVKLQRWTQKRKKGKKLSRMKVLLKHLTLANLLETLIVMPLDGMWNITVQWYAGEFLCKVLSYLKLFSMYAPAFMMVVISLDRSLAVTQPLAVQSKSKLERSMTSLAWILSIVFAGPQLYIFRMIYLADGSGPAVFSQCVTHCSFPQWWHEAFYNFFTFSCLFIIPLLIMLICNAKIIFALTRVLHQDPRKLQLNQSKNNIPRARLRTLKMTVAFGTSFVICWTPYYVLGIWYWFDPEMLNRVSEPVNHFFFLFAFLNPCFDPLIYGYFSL
Kind of assay: LHRH rat pituitary receptor binding (pKI). Conditions: in vitro; for Ki: read-out: pKI (receptor binding affinity) (converted). Here is the method: Representative compounds of the present invention were evaluated in in vitro tests for LHRH rat pituitary receptor binding (pKI) and for LH inhibition from rat pituitary cells for antagonist potency (pA2). […] The receptor binding affinity (pKI) is the negative equilibrium dissociation constants.

For `CCCN(C(C)C)[C@H]1C[C@@H](C)O[C@@H](O[C@@H]2[C@@H](C)[C@H](O[C@H]3C[C@@](C)(OC)[C@@H](O)[C@H](C)O3)[C@@H](C)C(=O)O[C@H](CC)[C@@]3(C)OC(=O)N(CCc4ccc(Cl)cc4)[C@@H]3[C@@H](C)C(=O)[C@H](C)C[C@@]2(C)OC)[C@@H]1O` [Example 6, 3',3'-N-Bisdesmethyl-3'-N-isopropyl-3'-N-propyl-11-deoxy-11-[carboxy-(4-chlorophenethylamino)]-6-O-methyl-erythromycin A 11,12-(cyclic carbamate)], the Ki was 8.32 nM.

In the case of `CC[C@H]1OC(=O)[C@H](C)[C@@H](O[C@H]2C[C@@](C)(OC)[C@@H](O)[C@H](C)O2)[C@H](C)[C@@H](O[C@@H]2O[C@H](C)C[C@H](N(CCCc3ccccn3)CCCc3ccccn3)[C@H]2O)[C@](C)(OC)C[C@@H](C)C(=O)[C@H](C)[C@H]2N(CCc3ccc(Cl)c(Cl)c3)C(=O)O[C@]12C` [Example 20, 3',3'-N-Bisdesmethyl-3',3'-N-bis-[3-(2-pyridyl)-propyl]-11-deoxy-11-[carboxy-(3,4-dichlorophenethylamino)]-6-O-methyl-erythromycin A 11,12-(cyclic carbamate)], the Ki was 3.98 nM.

On to `CC[C@H]1OC(=O)[C@H](C)[C@@H](O[C@H]2C[C@@](C)(OC)[C@@H](O)[C@H](C)O2)[C@H](C)[C@@H](O[C@@H]2O[C@H](C)C[C@H](N(CC)C(C)C)[C@H]2O)[C@](C)(OC)C[C@@H](C)C(=O)[C@H](C)[C@H]2N(CCc3ccc(Cl)cc3)C(=O)O[C@]12C` [Example 8, 3',3'-N-Bisdesmethyl-3'-N-ethyl-3'-N-isopropyl-11-deoxy-11-[carboxy-(4-chlorophenethylamino)]-6-O-methyl-erythromycin A 11,12-(cyclic carbamate)], for which the Ki is 2.51 nM.

As to `CC[C@H]1OC(=O)[C@H](C)[C@@H](O[C@H]2C[C@@](C)(OC)[C@@H](O)[C@H](C)O2)[C@H](C)[C@@H](O[C@@H]2O[C@H](C)C[C@H](N(CC3CCC3)CC3CC3)[C@H]2O)[C@](C)(OC)C[C@@H](C)C(=O)[C@H](C)[C@H]2N(CCc3ccc(Cl)cc3)C(=O)O[C@]12C` [Example 9, 3',3'-N-Bisdesmethyl-3'-N-cyclobutylmethyl-3'-N-cyclopropylmethyl-11-deoxy-11-[carboxy-(4-chlorophenethylamino)]-6-methyl-erythromycin A 11,12-(cycliccarbamate)], the Ki is 6.31 nM.

For “3',3'-N-Bisdesmethyl-3'-N-cyclopentyl-3'-N-cyclopropylmethyl-11-deoxy-11-[carboxy-(3-chloro-4-fluorophenethylamino)]-6-O-methyl-erythromycin A 11,12-(cyclic carbamate) [Example 16]”, the “pKI (receptor binding affinity)” value came to 8.87.

For the compound `CC[C@H]1OC(=O)[C@H](C)[C@@H](O[C@H]2C[C@@](C)(OC)[C@@H](O)[C@H](C)O2)[C@H](C)[C@@H](O[C@@H]2O[C@H](C)C[C@H](N(CC3CC3)CC3CC3)[C@H]2O)[C@](C)(OC)C[C@@H](C)C(=O)[C@H](C)[C@H]2N(CCc3ccc(F)c(Cl)c3)C(=O)O[C@]12C` [Example 15, 3',3'-N-Bisdesmethyl-3',3'-N-biscyclopropylmethyl-11-deoxy-11-[carboxy-(3-chloro-4-fluorophenetlamino)]-6-O-methyl-erythromycin A 11,12-(cyclic carbamate)], the Ki was 1.26 nM.

As to “3',3 -N-Bisdesmethyl-3'-N-cyclopropylmethyl-3'-N-4-hydroxymethyl-(2-furylmethyl-11-Deoxy-11-[carboxy-(3,4-dichlorophenethylamino)]-6-O-methyl-erythromycinA 11,12-(cyclic carbamate) [Example 21]”, the “pKI (receptor binding affinity)” value is given as 8.34.

For the compound `CC[C@H]1OC(=O)[C@H](C)[C@@H](O[C@H]2C[C@@](C)(OC)[C@@H](O)[C@H](C)O2)[C@H](C)[C@@H](O[C@@H]2O[C@H](C)C[C@H](N(C3CCC3)C3CCC3)[C@H]2O)[C@](C)(OC)C[C@@H](C)C(=O)[C@H](C)[C@H]2N(CCc3ccc(Cl)c(F)c3)C(=O)O[C@]12C` [Example 12, 3',3'-N-Bisdesmethyl-3',3'-N-biscyclobutyl-11-deoxy-11-[carboxy-(4-chloro-3-fluorophenethylamino)]-O-methl-erythromycin A 11,12-(cyclic carbamate)], the Ki was 1 nM.

Consider `CC[C@H]1OC(=O)[C@H](C)[C@@H](O[C@H]2C[C@@](C)(OC)[C@@H](O)[C@H](C)O2)[C@H](C)[C@@H](O[C@@H]2O[C@H](C)C[C@H](N(CC3CC3)CC3CC3)[C@H]2O)[C@](C)(OC)C[C@@H](C)C(=O)[C@H](C)[C@H]2N(CCc3ccc(OC)cc3)C(=O)O[C@]12C` [Example 10, 3',3'-N-Bisdesmethyl-3',3'-N-biscyclopropylmethyl-11-deoxy-11-[carboxy-(4-methoxyphenethylamino)]-6-O-methyl-erythromycin A 11,12-(cyclic carbamate)], for which the Ki was 1.41 nM.

Regarding `CC[C@H]1OC(=O)[C@H](C)[C@@H](O[C@H]2C[C@@](C)(OC)[C@@H](O)[C@H](C)O2)[C@H](C)[C@@H](O[C@@H]2O[C@H](C)C[C@H](N(CC3CC3)C(C)C)[C@H]2O)[C@](C)(OC)C[C@@H](C)C(=O)[C@H](C)[C@H]2N(CCc3ccc(Cl)cc3)C(=O)O[C@]12C` [Example 7, 3',3'-N-Bisdesmethyl-3'-N-cyclopropylmethyl-3'-N-isopropyl-11-deoxy-11-carboxy-(4-chlorophenethylamino)]-6-O-methyl-erythromycin A 11,12-(cyclic carbamate)], the “pKI (receptor binding affinity)” value turned out to be 8.56.

As to `CC[C@H]1OC(=O)[C@H](C)[C@@H](O[C@H]2C[C@@](C)(OC)[C@@H](O)[C@H](C)O2)[C@H](C)[C@@H](O[C@@H]2O[C@H](C)C[C@H](N(CC3CC3)CC3CC3)[C@H]2O)[C@](C)(OC)C[C@@H](C)C(=O)[C@H](C)[C@H]2N(CCc3ccc(Cl)c(Cl)c3)C(=O)O[C@]12C` [Example 1], the Ki was 18.6 nM.

`CC[C@H]1OC(=O)[C@H](C)[C@@H](O[C@H]2C[C@@](C)(OC)[C@@H](O)[C@H](C)O2)[C@H](C)[C@@H](O[C@@H]2O[C@H](C)C[C@H](N(CC3CC3)CC3CC3)[C@H]2O)[C@](C)(OC)C[C@@H](C)C(=O)[C@H](C)[C@H]2N(CCc3ccc(Cl)cc3)C(=O)O[C@]12C` [Example 3, 3',3'-N-Bisdesmethyl-3',3'-N-biscyclolpropylmethyl-11-deoxy-11-[carboxy-(4-chlorophenetlylamino)]-6-methyl-eryromycin A 11,12-(cyclic carbamate)]: the Ki was 4.17 nM.

On to `CC[C@H]1OC(=O)[C@H](C)[C@@H](O[C@H]2C[C@@](C)(OC)[C@@H](O)[C@H](C)O2)[C@H](C)[C@@H](O[C@@H]2O[C@H](C)C[C@H](N(CC3CC3)CC3CC3)[C@H]2O)[C@](C)(OC)C[C@@H](C)C(=O)[C@H](C)[C@H]2N(CCc3ccc(F)cc3)C(=O)O[C@]12C` [Example 11, 3',3'-N-Bisdesmethyl-3',3'-N-biscyclopropylmethyl-11-deoxy-11-[carboxy-(4-fluorophenethylamino)]-6-O-methyl-erthromycin A 11,12-(cyclic carbamate)], for which the Ki was 2.19 nM.

With “3',3'-N-Bisdesmethyl-3'-N-cyclopropylmethyl-3'-N-(6-methyl-2-pyridyl)methyl-11-deoxy-11-[carboxy-(3-chloro-4-fluorophenethylamino)]-6-O-methyl-erythromycin A 11,12-(cyclic carbamate) [Example 25]”, the “pKI (receptor binding affinity)” value stood at 8.58.

In the case of “3',3'-N-Bisdesmethyl-3'-N-cyclopropylmethyl-3'-N-(4hydroxymethyl-2-furyl)methyl-11-deoxy-11-[carboxy-(3-chloro-4-fluorophenethylamino)]-6-O-methyl-erythromycin A 11,12-(cyclic carbamate) [Example 23]”, the “pKI (receptor binding affinity)” value is on record as 8.98.

Take “3',3'-N-Bisdesmethyl-3'-N-cyclopropylmethyl-3'-N-(2-furyl)methyl-11-deoxy-11-[carboxy-(3-chloro-4-fluorophenethylamino)]-6-O-methyl-erythromycin A 11,12-(cyclic carbamate) [Example 24]”: the “pKI (receptor binding affinity)” value came to 8.00.

For `CC[C@H]1OC(=O)[C@H](C)[C@@H](O[C@H]2C[C@@](C)(OC)[C@@H](O)[C@H](C)O2)[C@H](C)[C@@H](O[C@@H]2O[C@H](C)C[C@H](N(CC3CC3)C3CCC3)[C@H]2O)[C@](C)(OC)C[C@@H](C)C(=O)[C@H](C)[C@H]2N(CCc3ccc(F)c(Cl)c3)C(=O)O[C@]12C` [Example 19, 3',3'-N-Bisdesmethyl-3'-N-cyclobutyl-3'-N-cyclopropylmethyl-11-deoxy-11-[carboxy-(3-chloro-4-fluorophenethylamino)]-6-O-methyl-erythromycin A 11,12-(cyclic carbamate)], the “pKI (receptor binding affinity)” value is recorded as 9.08.

Turning to `CC[C@H]1OC(=O)[C@H](C)[C@@H](O[C@H]2C[C@@](C)(OC)[C@@H](O)[C@H](C)O2)[C@H](C)[C@@H](O[C@@H]2O[C@H](C)C[C@H](N(CCCc3ccncc3)CC3CC3)[C@H]2O)[C@](C)(OC)C[C@@H](C)C(=O)[C@H](C)[C@H]2N(CCc3ccc(Cl)c(Cl)c3)C(=O)O[C@]12C` [Example 22, 3',3'-N-Bisdesmethyl-3'-N-cyclopropylmethyl-3'-N-[3-(4-pyridyl)propyl]-11-deoxy-11-[carboxy-(3,4-dichlorophenethylamino)]-6-O-methyl-erythromycin A 11,12-(cyclic carbamate)], the Ki was 1.91 nM.
